# Source: patent publication US11826355B1, “Aspirin-mimetic antioxidants for treatment of age-related cataract” (priority 2022, dated 2023)
# Values joined by “and” are separate entries in the source; they are usually repeats but may differ in a detail not shown here. Identical values can stand only once.
# Columns and labels:
# prostate cancer = details: 2008 SELECT RCT; cited from earlier work
# [1] = General clinical observations during 60-day eye drop administration; format: in vivo, rat; details: eye drops 3 times/day, 60-day administration phase, all concentrations
# Description: (§1) At the age of 19 days after birth (D-1) of the suckling rats, 30 lens opacities were selected for a cloudy rating at Class 4 or 5; Wister suckling rats were randomly divided into 5 groups (G1-G5 groups, 6 in each group); and a cage of suckling rats as G6 was randomly selected after the animals opened their eyes (14-16 days of age).
# [2] = Body weight of rats in the cataract model study; format: in vivo, rat; details: G1, 0.8 mg/15 mL, 10 μl 3 times/day
# Protocol: (§2) At the age of 11-12 days after birth, all suckling rats underwent a single intraperitoneal injection of sodium selenite (30 μmol/kg, i.e., 0.1 ml/10 g) for model-building. Sodium selenite solution was configured with normal saline at a concentration of 3 mM.
# as §1
# (§3) The subject suckling rats of groups G1 to G5 were treated at the age of 20 days after birth (D1), and the specific dosing information is shown in Table 1. Treatment in the G6 group was conducted after the animals opened their eyes (14-16 days old, D-6-D-4), and the specific dosing information is shown in Table 1.
# [3] = tested on: Wistar rat cataract model induced by sodium selenite; experiment: Lens opacity score (slit lamp) in sodium selenite-induced cataract rat model; format: in vivo; parameters: lens opacity score, Mean / lens opacity score / lens opacity score, raw data per eye (OD/OS, rats 1-6): scale not given here; details: G1, 0.8 mg/15 mL, 10 μl 3 times/day
# Protocol: A new batch of eye drops solutions was prepared every week. Placebo was a solution that contained the same excipients but without the drug compound. The eye drops solutions were prepared as follows:
# 3. An illustrative procedure: To a 250 mL volume flask were added 25 mg each of the excipients, sodium borate, boric acid, sodium chloride, and potassium chloride, an aspirin mimetic drug compound to be tested (e.g., DPL-004, 9.0 mg), and about 200 ml of sterilized water to form a mixture. The resultant mixture was shaken well to dissolve solids; and more sterilized water was added to bring the volume of solution to 250 mL, which was shaken well and then distributed into small portions. Each portion was labeled with a concentration of 3.6 mg/100 mL and the preparation date and was stored in a refrigerator for future use.
# 4. Eye drops solutions comprising DPL-004 at a concentration of 36 mg/100 mL and 12 mg/100 mL were prepared similarly according to the above procedure by using 90 mg and 30 mg of DPL-004, respectively, while maintaining the same amounts of excipients as shown above.
# as §2, §1, §3
# At D-1, in the fourth week of treatment, the slit lamp was used at the end of administration to observe the turbidity of the lens and grade it, and the grading and scoring criteria are shown in the following Table 2.
# lung cancer = details: 1994 ATBC RCT; cited from earlier work
# [4] = tested on: acute ischemia stroke (AIS) and/or ALS; details: approved for acute ischemia stroke (AIS) and/or ALS; cited from earlier work
# [5] = pH about 6.4, day -1 (before administration)
smiles,measurement,setting,value
Cc1c(C)c2c(c(C)c1O)CC[C@@](C)(CCC[C@H](C)CCC[C@H](C)CCCC(C)C)O2 [Vitamin E],Adverse Effects: more prostate cancer,prostate cancer,17% more prostate
"O=C(O)c1cc(O)c2c3nc4ccccc4oc-3cc(=O)c2n1 [Pirenoxine, reference compound]","abnormal symptoms (activity status, body weight, skin hair, secretion morphology and color)",[1],no abnormal symptoms
same,"Body Weight, Mean","[2]; pH about 6.4, day 4",57.07 g
same,"Body Weight, Mean","[2]; pH about 6.4, day 11",96.02 g
same,"Body Weight, Mean","[2]; pH about 6.4, day 18",133.87 g
same,"Body Weight, Mean","[2]; pH about 6.4, day 25",163.00 g
same,"Body Weight, Mean","[2]; pH about 6.4, day 32",197.18 g
same,"Body Weight, Mean","[2]; pH about 6.4, day 39",219.45 g
same,"Body Weight, Mean","[2]; pH about 6.4, day 46",239.75 g
same,"Body Weight, Mean","[2]; pH about 6.4, day 53",255.82 g
same,"Body Weight, Mean","[2]; pH about 6.4, day 60",270.00 g
same,"Body Weight, Mean",[2]; [5],43.48 g
same,"lens opacity score, Mean","[3]; pH about 6.4, day 28",3.42
same,"lens opacity score, raw data per eye (OD/OS, rats 1-6)","[3]; pH about 6.4, day 28",3 and 4
same,"lens opacity score, Mean","[3]; pH about 6.4, day 60",2.92
same,"lens opacity score, raw data per eye (OD/OS, rats 1-6)","[3]; pH about 6.4, day 60",2 and 4 and 3
same,"lens opacity score, Mean",[3]; [5],4.00
same,"lens opacity score, raw data per eye (OD/OS, rats 1-6)",[3]; [5],4
"CC1=C(/C=C/C(C)=C/C=C/C(C)=C/C=C/C=C(C)/C=C/C=C(C)/C=C/C2=C(C)CCCC2(C)C)C(C)(C)CCC1 [Beta-carotene only, Beta-carotene]",Adverse Effects: more lung cancer,lung cancer,18% more lung
CC1=NN(c2ccccc2)C(=O)C1 [Edaravone],efficacy (marginal),[4],5%
